Assay results reported in patent US11613544B2, “Substituted imidazo[1,5-a]pyrazines for modulation of IRE1” (THE REGENTS OF THE UNIVERSITY OF CALIFORNIA, priority 2012, dated 2023).
Entries after “also recorded” stand apart in the source; their conditions may differ.

Experiments:
IRE1α* [1] = target: T1, IRE1α* (Homo sapiens, UniProt O75460); settings: in vitro
[2] = system: pancreatic islets from C57BL/6 mice; assay: Pancreatic islets treated with ER stress inducer (Tm); type: cell-based, mouse
Protocol: FIG. 30. KIRA6 inhibits IRE1α autophosphorylation, breaks oligomers, reduces RNase activity, and protects cells from entry into apoptosis. (A) Structure of KIRA6. (B) RNase activities of IRE1α* under varying [KIRA6]; half-maximum effective concentration (EC50) values were determined by fitting normalized fluorescence intensities (mean±s.d., n=3). (C) Inhibition of IRE1α* kinase activity in vitro by KIRA6; IC50 values were determined by fitting percent phosphorylation. […] (E) Immunoblots of IRE1α* (WT) incubated with DMSO or KIRA6 (200 μM) followed by treatment with the crosslinker DSS (250 μM); quantification is on the right. (F) Agarose gel of XBP1 cDNA amplicons from INS-1 cells pre-treated with indicated concentrations of KIRA6 for 1 h, followed by 0.5 μg/ml Tm for 8 h. […] (H) KIRAs reduce entry of INS1-1 cells into apoptosis. (I) Immunofluorescence of islets from 10 wk old C57BL/6 mice treated with 0.5 μg/mL Tm plus/minus 0.5 μM KIRA6 for 16 hr. Co-stained for DAPI, insulin, and TUNEL; Quantification of TUNEL positive β-cells (white arrows) normalized to DAPI-positive cells is shown. […] (K) Model of how KIRA6 prevents the terminal UPR by inhibiting IRE1α. […]

retinal photoreceptors = assay: Intravitreal injection in rat models of retinal degeneration (tunicamycin; P23H rhodopsin); type: in vivo
Protocol: Based on known rat vitreous volumes, 2 μl was injected intravitreally into each eye. Tm ([…] final concentration) plus/minus KIRA6 (10 μM final concentration) was injected into SD rats at P21 with an equivalent amount of DMSO as a vehicle control. Retinas were collected at 48 and 72 hrs after injections in Trizol (Invitrogen) for qPCR analysis. Eyes were examined by optical coherence tomography (OCT) 7 days post injection and subsequently collected for morphological analysis. […]
Mice were anaesthetized with 1.5-3% isoflurane, eyes were dilated with 2.5% phenylephrine hydrochloride and 1% tropicamide, and corneas were kept moist with regular application of 2.5% methylcellulose. Eyes were examined using a Micron III retinal imaging system (Phoenix Research Labs). Spectral domain OCT images were acquired with a Micron Image Guided OCT System (Phoenix Research Labs) by averaging 10 to 50 scans.
Outer nuclear layers (ONL) were quantified as previously described (Lewin, A. S. et al., Nature medicine 4, 967-971 (1998)). Briefly, rats were euthanized by CO2 inhalation and their eyes were immediately enucleated and immersed in 2% paraformaldehyde and 2.5% glutaraldehyde in phosphate buffered saline. […] ONL thickness was measured at 54 locations around the retina using Bioquant image analysis (Bioquant; R&M Biometrics).

[3] = system: mouse embryonic fibroblasts (MEFs); assay: Cytoprotection in mouse embryonic fibroblasts; type: cell-based
IRE1α* (WT) = target: T2, IRE1α* (WT) (Homo sapiens, UniProt O75460); assay: In vitro cleavage of pre-miR-17 by IRE1α*; type: biochemical
T2 construct: 6-His-tag (N); made in house; host or cells: SF9 insect cells (Bac-to-Bac baculovirus)
Text: FIG. 31. […] Sequence legend (FIG. 31B): SEQ ID NOs:11-15 (in order top to bottom); (FIG. 31C): SEQ ID NO:16.
Described herein is the characterization of four select miRs that decay in vivo upon IRE1α hyperactivation. These are miR-17, miR-34a, miR-96, and miR-125b. WT-IRE1α directly cleaved pre-miR-17 in vitro at sites distinct from those cleaved by DICER, as mapped by primer extension. The scission sites of pre-miR-17 are identical to those of XBP1 mRNA—(G/C)—and diverge at the flanking regions. Thus, by reducing levels of pre-miRs, IRE1α antagonizes DICER action to reduce cellular levels of the corresponding mature miRs. Intriguingly, IRE1α* (I642G), which can be activated by 1NM-PP1 to cleave XBP1 mRNA in vitro, can also cleave pre-miR-17 under 1NM-PP1. An RNAse mutant, IRE1α* (N906A), is compromised for cleavage of pre-miR-17 (FIG. 31, A-C). […] As IRE1α homo-oligomerizes in the ER membrane in proportion to the concentration of unfolded proteins in the ER lumen, it progressively trans-autophosphorylates. Furthermore, salt bridges between phospho-amino acid groups and other residues reinforce higher-order homo-oligomerization of kinase/RNAse domains, as was shown using yeast IRE1. Thus, as IRE1α protein clusters into higher-order oligomers, it acquires increasing activity towards its RNA substrates. […]

INS-1 cells = assay: Terminal UPR endpoints and apoptosis in cells under ER stress; type: cell-based, rat
Text: Using rat insulinoma (INS-1) cells that have a well-developed ER and secrete insulin, the duration and magnitude of ER stress that triggers apoptosis were quantified. Two variables-concentration of ER stress inducer (e.g. Thapsigargin-Tg) and time of exposure to the agent—are directly linked to the percentage of cells entering apoptosis (FIG. 28, A and B). Such regimes can be defined for other ER stress inducers such as the glycosylation inhibitor, tunicamycin (Tm) (FIG. 28,C). Increasing ER stress causes progressive increases in endogenous IRE1α phosphorylation, increases in XBP1 mRNA splicing (FIG. 28, E), depletion through endonucleolytic decay of the ER-localized mRNA, Ins1, which encodes proinsulin (FIG. 28, F), and induction of the pro-apoptotic transcription factor, CHOP (FIG. 28, G).
KIRAs break high-order oligomerization of IRE1α kinase domains, attenuate RNAse activity, and reduce entry of cells into the Terminal UPR.
A model of KIRA6-mediated cytoprotection is shown (FIG. 30, J); it posits that the type II kinase inhibitor, KIRA6, reduces kinase/RNAse homo-oligomerization on the cytosolic face of IRE1α, which consequently reduces RNase hyperactivity under ER stress, preventing pro-apoptotic ER-localized mRNA decay and granting cells extended reprieve from programmed cell death.

Src = Src (Homo sapiens, UniProt P12931); assay: Kinase panel counter-screen; type: biochemical; settings: tested against 12 kinases of the panel
Abl = Abl (Homo sapiens, UniProt P00519); assay: Kinase panel counter-screen; type: biochemical; settings: tested against 12 kinases of the panel
IRE1α* [4] = target: T1, IRE1α*; assay: IRE1α* DSS cross-linking to determine oligomer to monomer ratio; settings: saturating compound (200 μM), DSS 250 μM
Protocol: The reaction was quenched by addition of 50 mM Tris-HCl (pH 7.5). The samples were then boiled, resolved on SDS-PAGE, and immunoblotted for IRE1α with an anti-IRE1α antibody, (visualization and quantification with a LI-COR Odyssey scanner).

IRE1α* [5] = target: T1, IRE1α*; assay: IRE1α* autophosphorylation kinase assay ([γ-32P]ATP, autoradiography); settings: in vitro
Protocol: Inhibitors (initial concentration=80 μM, 2-fold serial dilutions) were incubated with IRE1α in cleavage buffer (20 mM Hepes at pH 7.5, 0.05% Triton X100, 50 mM KOAC, 1 mM Mg(OAC)2, 1 mM DTT) for 20 min, followed by incubation with 10 μCi [γ-^32P]ATP (3000 Ci/mmol, Perkin Elmer) at RT for 30 min. Samples were then separated by SDS-PAGE, and autoradiographed. The auto-phosphorylation level were quantified by setting the band intensity of IRE1α* without compound treatment as 1 and the background as 0.

T1 sequence (O75460 with tags, fused parts or gaps): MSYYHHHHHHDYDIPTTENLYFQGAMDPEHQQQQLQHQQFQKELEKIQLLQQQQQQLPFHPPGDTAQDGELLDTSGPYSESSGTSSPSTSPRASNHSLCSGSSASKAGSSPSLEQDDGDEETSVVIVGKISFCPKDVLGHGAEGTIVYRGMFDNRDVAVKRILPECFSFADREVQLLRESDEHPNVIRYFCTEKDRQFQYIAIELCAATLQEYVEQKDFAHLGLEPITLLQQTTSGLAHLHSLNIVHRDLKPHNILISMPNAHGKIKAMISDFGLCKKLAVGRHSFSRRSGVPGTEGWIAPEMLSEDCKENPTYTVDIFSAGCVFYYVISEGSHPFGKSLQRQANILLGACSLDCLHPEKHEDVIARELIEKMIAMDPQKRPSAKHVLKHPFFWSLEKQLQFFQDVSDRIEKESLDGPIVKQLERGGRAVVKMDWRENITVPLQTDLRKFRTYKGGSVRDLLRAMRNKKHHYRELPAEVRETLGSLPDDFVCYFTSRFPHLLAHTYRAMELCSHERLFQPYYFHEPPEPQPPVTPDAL
T2 sequence (O75460 with tags, fused parts or gaps): as above
Src, sequence (P12931 whole entry, species assumed): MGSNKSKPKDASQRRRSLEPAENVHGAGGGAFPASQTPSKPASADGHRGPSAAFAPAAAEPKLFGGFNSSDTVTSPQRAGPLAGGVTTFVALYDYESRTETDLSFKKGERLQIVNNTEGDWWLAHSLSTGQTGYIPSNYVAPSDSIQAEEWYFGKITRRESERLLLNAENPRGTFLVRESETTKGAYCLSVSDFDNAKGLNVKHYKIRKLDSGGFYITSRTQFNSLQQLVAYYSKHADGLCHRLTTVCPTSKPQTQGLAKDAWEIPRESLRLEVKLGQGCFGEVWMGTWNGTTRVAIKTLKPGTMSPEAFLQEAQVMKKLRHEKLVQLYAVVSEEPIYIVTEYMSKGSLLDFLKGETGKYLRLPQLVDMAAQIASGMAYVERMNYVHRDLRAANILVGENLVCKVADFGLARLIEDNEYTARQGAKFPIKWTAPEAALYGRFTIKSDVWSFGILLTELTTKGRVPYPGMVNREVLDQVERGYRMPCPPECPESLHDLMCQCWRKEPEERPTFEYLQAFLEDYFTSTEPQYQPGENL
Abl, sequence (P00519 whole entry, species assumed): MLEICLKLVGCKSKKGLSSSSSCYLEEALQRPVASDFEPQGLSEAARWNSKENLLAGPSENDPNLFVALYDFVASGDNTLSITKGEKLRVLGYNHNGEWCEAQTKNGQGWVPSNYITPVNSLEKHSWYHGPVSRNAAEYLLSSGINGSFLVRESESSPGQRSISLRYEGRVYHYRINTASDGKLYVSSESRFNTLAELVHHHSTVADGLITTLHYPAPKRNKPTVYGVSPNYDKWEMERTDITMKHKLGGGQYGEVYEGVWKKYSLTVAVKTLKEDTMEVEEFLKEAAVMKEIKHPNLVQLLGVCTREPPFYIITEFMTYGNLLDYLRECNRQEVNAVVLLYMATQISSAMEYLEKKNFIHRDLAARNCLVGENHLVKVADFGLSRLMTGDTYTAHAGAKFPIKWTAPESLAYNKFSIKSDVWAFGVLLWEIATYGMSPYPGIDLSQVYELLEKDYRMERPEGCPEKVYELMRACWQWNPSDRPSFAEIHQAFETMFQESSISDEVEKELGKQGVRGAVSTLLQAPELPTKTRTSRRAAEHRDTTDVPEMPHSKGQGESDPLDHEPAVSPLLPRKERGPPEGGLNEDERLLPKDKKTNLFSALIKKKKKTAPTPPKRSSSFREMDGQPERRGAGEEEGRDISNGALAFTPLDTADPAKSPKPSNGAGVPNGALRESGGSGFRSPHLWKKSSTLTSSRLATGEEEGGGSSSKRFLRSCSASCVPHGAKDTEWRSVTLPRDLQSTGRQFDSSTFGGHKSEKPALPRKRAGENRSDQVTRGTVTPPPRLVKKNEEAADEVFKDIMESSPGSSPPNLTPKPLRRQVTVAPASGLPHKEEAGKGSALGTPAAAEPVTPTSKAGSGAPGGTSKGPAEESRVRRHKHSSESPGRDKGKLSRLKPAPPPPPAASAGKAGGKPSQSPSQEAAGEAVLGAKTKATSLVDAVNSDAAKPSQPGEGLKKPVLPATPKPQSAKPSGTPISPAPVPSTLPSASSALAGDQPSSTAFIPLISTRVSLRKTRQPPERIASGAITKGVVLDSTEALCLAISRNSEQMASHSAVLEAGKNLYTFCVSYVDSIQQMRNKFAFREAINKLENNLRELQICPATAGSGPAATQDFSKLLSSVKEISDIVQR

off-target kinase inhibition (Src): off-target inhibition observed | off-target kinase inhibition (Abl): off-target inhibition observed
Structure (SMILES): CC(C)(C)c1nc(-c2ccc(NC(=O)Nc3cccc(C(F)(F)F)c3)c3ccccc23)c2c(N)nccn12 [KIRA6, 1-(4-(8-amino-3-tert-butylimidazo[1,5-a]pyrazin-1-yl)naphthalen-1-yl)-3-(3-(trifluoromethyl)phenyl)urea]
modulation of IRE1α* RNase activity (XBP1 RNA cleavage) (IRE1α* [1]): inhibits IRE1α* RNase and kinase activities with similar IC50s; also recorded: dose-dependently reduces kinase autophosphorylation and XBP1 splicing activity | TXNIP protein accumulation ([2]; C57BL/6 islets exposed to ER stress inducers): prevents TXNIP protein accumulation | cytoprotection of pancreatic islets ([2]; islets treated with Tm): cytoprotective effects | outer nuclear layer (ONL) thickness vs DMSO (retinal photoreceptors; P23H-1 rats at P30, intravitreal 10 μM): higher thickness | photoreceptor loss / viability and function (retinal photoreceptors; intravitreal, rat models of retinal degeneration caused by ER stress): protects viability and preserves function of retinal photoreceptors; also recorded: prevents photoreceptor loss | endogenous IRE1α-mediated XBP1 mRNA splicing (endogenous IRE1α; INS-1, provoked by Tm): inhibits endogenous IRE1α-mediated XBP1 mRNA splicing | endogenous IRE1α auto-phosphorylation (endogenous IRE1α; in vivo (cells), FIG. 30D): inhibits endogenous IRE1α auto-phosphorylation in a dose-dependent manner | cytoprotective effects ([3]; Ire1α−/− MEFs): absent | cytoprotective effects ([3]; WT and Xbp1−/− MEFs): still demonstrable | cleavage of pre-miR-17 by IRE1α* (IRE1α* (WT)): dose-dependently inhibits IRE1α* (WT) cleavage of pre-miR-17; also recorded: prevents cleavage of pre-miR-17 by IRE1α* in vitro | ER-localized endonucleolytic decay of Ins1 mRNA (INS-1 cells; ER stress): inhibits ER-localized endonucleolytic decay of Ins1 mRNA at lower doses of the drug than needed to inhibit XBP1 mRNA splicing | caspase 2 accumulation and cleavage (INS-1 cells; FIG. 31F): reduces caspase 2 accumulation and cleavage | mature miR-17 levels (INS-1 cells; in vivo (cells), FIG. 31E): rescues mature miR-17 levels | terminal UPR endpoints / entry into apoptosis (INS-1 cells; pre-treatment before ER stress inducers): all these terminal UPR endpoints are curtailed | IRE1α* oligomer/monomer ratio (oligomerization state) (IRE1α* [4]): stabilizes the monomeric state; also recorded: reduces concentration-dependent oligomerization | inhibition of IRE1α* autophosphorylation (IRE1α* [5]): dose-dependently reduces kinase autophosphorylation
